Results published in US20250368651A1 (priority 2022, published 2025).

Assays:
RNA Seq4 […] = test: FP binding assay, RNA Seq4
Protocol: (§1) All synthetic DNA and RNA oligomers were purchased from Integrated DNA Technologies and reconstituted in nuclease-free water (Invitrogen #AM9932) at 1 mM. The concentration of the oligonucleotides at ˜0.1 mM was calibrated with the A260 value measured by a NanoDrop ND-1000 (Thermo, Waltham, MA, USA) and the predicted extinction coefficient (http://www.oligoevaluator.com) using Lamber-Beer's Law. The risdiplam analogues (1 mM in DMSO) were diluted in 2× assay buffer (40 mM HEPES, 200 mM NaCl for RNA; 40 mM HEPES, 200 mM NaCl, 1 mM MgCl2 for DNA) to make a 1 μM 2× working solution.
(§2) A 1:2 dilution series (8 points) of each oligonucleotide was prepared in 20-30 μL water to desired concentrations (i.e., 1-128 μM). 20-30 μL 2× working solution containing the 2× assay buffer and the small-molecule ligand was added to each oligonucleotide sample in 1:1 (v/v) and mixed by pipetting for 4 times. For fluorescence polarization measurement, 20 μL of the above 1× working solution was transferred into a 384-well, black, F-bottom microplates (Greiner Bio-One) in duplicates or triplicates. The plate was equilibrated at room temperature for 5 min before being read using a microplate reader (SYNERGY H1, BioTek; Excitation/Emission=360/460 nm) at 25° C. For compound SMN-C5, a competitive binding assay was employed to measure an apparent Kd. SMN-C5 was 1:2 serial diluted for 10 concentration points starting at 750 μM in DMSO. A mixture of SMN-C2 (0.5 μM) and DNA Seq6 (25 μM) in 1× assay buffer was prepared and incubated at room temperature for 10 minutes. 3 μL of SMN-C5 solution at each concentration was added to a 42 μL SMN-C2/DNA Seq6 mixture and incubated at room temperature for 10 minutes. The mixture was then transferred into a microplate (20 μL each well) in duplicates for fluorescence polarization readout. The experimental data were analyzed using Prism 8 software (Graphpad Software, San Diego, CA, USA).

DNA S3 […] = test: FP binding assay, 18-nt DNA S3
Protocol: as §1
(§3) A 1:2 dilution series (8 points) of each oligonucleotide was prepared in 20-30 μL water to desired concentrations (i.e., 1-128 μM). […] For fluorescence polarization measurement, 20 μL of the above 1× working solution was transferred into a 384-well, black, F-bottom microplates (Greiner Bio-One) in duplicates or triplicates. The plate was equilibrated at room temperature for 5 min before being read using a microplate reader (SYNERGY H1, BioTek; Excitation/Emission=360/460 nm) at 25° C. […] The mixture was then transferred into a microplate (20 μL each well) in duplicates for fluorescence polarization readout. The experimental data were analyzed using Prism 8 software (Graphpad Software, San Diego, CA, USA).

RNA Seq7 UUAAGGAAGGU = test: FP binding assay, RNA Seq7; conditions: Seq 7 UUAAGGAAGGU; 0.5 μM SMN-C2
Protocol: as §1, §3

DNA S27 d([…]) = test: FP binding assay, 10-nt DNA S27
Protocol: as §1, §3

[1] = target: COVID RNA (SARS-CoV-2 RNA SL5 per FIG. 8); test: FP binding, Kd for COVID RNA; conditions: Table 3
DNA Seq9 TTAAGGAAGTT = test: FP binding assay, DNA Seq9; conditions: Seq 9 TTAAGGAAGTT; 0.5 μM SMN-C2
Protocol: as §1, §3

DNA Seq6 = test: Isothermal titration calorimetry (ITC), DNA Seq6; assay type: binding; conditions: SMN-C2 250 μM into DNA Seq6 25 μM; MES buffer, 5% DMSO, 100 mM NaCl
Protocol: Excess amount of SMN-C2 was eluted at retention volume ˜21 mL. The figures are the representation of three independent experiments.
(§4) Isothermal calorimetric titrations were carried out on a Malvern Analytical MicroCal PEAQ-ITC at 25° C. The DNA (see above for the calibration procedure) and the SMN-C2 water solutions containing the desired amount of the materials were freeze-dried overnight (Labconco FreeZone 4.5 Liter Benchtop Freeze Dry System) and then re-suspended in appropriate volume of buffer containing 5% DMSO, 100 mM NaCl and 30 mM MES buffer at pH 6.0 (e.g., 350 μL for DNA Seq6, 80 μL for SMN-C2). […] The analysis was performed using the instrument's MicroCal PEAQ-ITC Analysis Software (Malvern Analytical). The ITC data was fit using the One Set of Sites mode to calculate the dissociate constant (Kd), binding stoichiometry, and the changes in enthalpy and Gibbs free energy. In differential power (DP) trace, the baseline was subtracted for better visualization, which has no impact on calculations.

in vitro [2] = conditions: human
[3] = system: SMN2 exon 7 minigenes with single-point mutations M1 and M2; test: SMN2 splicing assay with minigenes mutated in the GA-rich sequence (M1, M2) in 293T cells; assay type: cell-based, human
DNA S16 […] = test: FP binding assay, 18-nt DNA S16
Protocol: as §1, §3

DNA S6 […] = test: FP binding assay, 18-nt DNA S6
Protocol: as §1, §3

[4] = system: dsDNA formed by annealing Seq6 and its reverse complement, Seq6_RC; test: ITC, dsDNA (annealed Seq6 and Seq6_RC); assay type: binding; conditions: dsDNA of Seq6 and Seq6_RC
Protocol: The figures are representation of three independent experiments.
as §4

DNA S25 […] = test: FP binding assay, 18-nt DNA S25
Protocol: as §1, §3

RNA Seq6 UGAAGGAAGGU = test: Fluorescence polarization (FP) binding assay, RNA Seq6
Protocol: as §1, §2

DNA S19 […] = test: FP binding assay, 18-nt DNA S19
Protocol: as §1, §3

DNA S14 […] = test: FP binding assay, 18-nt DNA S14
Protocol: as §1, §3

DNA Seq16 TGAAGGAAAGT = test: FP binding assay, DNA Seq16; conditions: Seq 16 TGAAGGAAAGT; 0.5 μM SMN-C2
Protocol: as §1, §3

DNA Seq12 TGAAAGAAGGT = test: FP binding assay, DNA Seq12; conditions: Seq 12 TGAAAGAAGGT; 0.5 μM SMN-C2
Protocol: as §1, §3

[5] = target: DNA Seq7 (UUAAGGAAGGU as deoxyribonucleotides); test: FP binding assay, DNA Seq7; conditions: Seq 7; 0.5 μM SMN-C2
Protocol: as §1, §3

DNA Seq2 d(GAAGGAAGG) = test: FP binding assay, 9-nt DNA Seq2
Protocol: as §1, §3

in vitro [6] = conditions: human; remark: listed apart in the source
DNA S1 […] = test: FP binding assay, 18-nt DNA S1; conditions: range = 95% CI
Protocol: as §1, §3

Compound: CCN1CCN(c2ccc3cc(-c4cn5cc(C)nc(C)c5n4)c(=O)oc3c2)C[C@@H]1C [SMN-C2, (S)-3-(6,8-dimethylimidazo[1,2-a]pyrazin-2-yl)-7-(4-ethyl-3-methylpiperazin-1-yl)-2H-chromen-2-one]
- Kd (RNA Seq4 […]): 21.7 ± 4.3 µM
- Kd (DNA S3 […]): 21.7 ± 2.7 µM
- Kd (RNA Seq7 UUAAGGAAGGU): 42.3 ± 13.3 µM
- Kd (DNA S27 d([…])): 11.6 ± 1.7 µM
- Kd [1]: 1.6 ± 0.4 µM
- Kd (DNA Seq9 TTAAGGAAGTT): > 100 µM
- Kd (DNA Seq6): 4.8 µM
- CC50 (in vitro [2]): > 30 µM
- exon 7 inclusion ([3]; 1 μM, 293T cells transfected with mutated minigenes M1, M2): > 90%
- EC50 relative to minigene with wildtype exon 7 sequence, fold higher ([3]; mutated minigenes M1, M2 in 293T cells): 2-3 fold
- Kd (DNA S16 […]): 48.9 ± 12.2 µM
- Kd (DNA S6 […]): 33.3 ± 2.3 µM
- binding to dsDNA (ITC) [4]: abrogated most of the binding affinity
- Kd (DNA S25 […]): 48 ± 7.8 µM
- Kd (RNA Seq6 UGAAGGAAGGU; Seq 6 UGAAGGAAGGU, 0.5 μM SMN-C2, range = 95% CI, read-out: RNA Kd): 17.5 ± 2.2 µM
- binding affinity (Kd) to RNA Seq6 relative to RNA Seq18, fold stronger (RNA Seq6 UGAAGGAAGGU; binding site 2 vs binding site 1): 3.4 fold
- Kd (DNA S19 […]): 21 ± 1.1 µM
- Kd (DNA S14 […]): 19.5 ± 2.3 µM
- Kd (DNA Seq16 TGAAGGAAAGT): 27.4 ± 6 µM
- Kd (DNA Seq12 TGAAAGAAGGT): 17.6 ± 3.4 µM
- Kd [5]: > 100 µM
- Kd (DNA Seq2 d(GAAGGAAGG)): 34.3 ± 9.6 µM
- CC50 (in vitro [6]): > 30 µM
- Kd (DNA S1 […]): 15.3 ± 0.6 µM
